Among the data in patent US20230095520A1, “PHARMACEUTICAL COMPOSITION FOR PREVENTING OR TREATING CANCER COMPRISING AZOLE DERIVATIVES OR PHARMACEUTICALLY ACCEPTABLE SALT THEREOF” (Yungjin Pharm. Co., Ltd., priority 2020, published 2023) are inhibition and IC50 values, retold here.

This assay deals with MV-4-11 cells. The assay can be described thus: MV-4-11 cell proliferation inhibition (CCK-8). It is filed as cell-based. The note with it: Homo sapiens, 72 hours; for inhibition at 0.1 µM: MV4-11, MV-4-11, compound concentration 100 nM, read-out: Inhibition rate (%); for IC50: MV4-11, MV-4-11 proliferation. As for the experimental part:
MV-4-11 cells are one of the acute myeloid leukemia cells with a Fms-like tyrosine kinase (FLT3) gene mutation, and these cells are used to test inhibition of proliferation and survival of leukemia cells.
MV-4-11 cells cultured in a 96-well cell culture plate were treated with the compound of the present invention and cultured for 72 hours. Thereafter, the antiproliferative effect of the compound was assayed by the CCK-8 method using a tetrazolium salt.

Consider `C=CC(=O)Nc1ccc(-c2cccc(C(C)C(=O)Nc3ncc(C)s3)c2)cn1` (stereo not drawn) [Compound 1, N-(5-(3-(1-((5-methylthiazol-2-yl)amino)-1-oxopropan-2-yl)phenyl)pyridin-2-yl)acrylamide], for which the inhibition at 0.1 µM came to 80%.

For the compound `C=CC(=O)Nc1ccc(-c2cccc(C(C)C(=O)Nc3ncc(CC)s3)c2)cn1` (stereo not drawn) [Compound 4, N-(5-(3-(1-((5-ethylthiazol-2-yl)amino)-1-oxopropan-2-yl)phenyl)pyridin-2yl)acrylamide], the inhibition at 0.1 µM turned out to be 100% and the IC50 is 50.8 nM.

Regarding `CCc1cnc(NC(=O)[C@@H](C)c2cccc(-c3ccc(NC(=O)/C=C/CN(C)C)nc3)c2)s1` [Compound 17, (S,E)-4-(dimethylamino)-N-(5-(3-(1-((5-ethylthiazol-2-yl)amino)-1-oxopropan-2-yl)phenyl)pyridin-2-yl)but-2-enamide], the inhibition at 0.1 µM was determined as 100%.

Turning to `C=CC(=O)Nc1ccc(-c2cccc([C@H](C)C(=O)Nc3ncc(C#N)s3)c2)cn1` [Compound 18, (S)-N-(5-(3-(1-((5-cyanothiazol-2-yl)amino)-1-oxopropan-2-yl)phenyl)pyridin-2-yl)acrylamide], the inhibition at 0.1 µM came to 67%.

Turning to `C=CC(=O)Nc1ccc(-c2cccc([C@H](CC)C(=O)Nc3ncc(CC)s3)c2)cn1` [Compound 19, (S)-2-(3-(6-acrylamidopyridin-3-yl)phenyl)-N-(5-ethylthiazol-2-yl)butanamide], the inhibition at 0.1 µM is 75%.

Consider `C[C@H](C(=O)Nc1ncc(C#N)s1)c1cccc(-c2ccc(NC(=O)/C=C/CN(C)C)nc2)c1` [Compound 21, (S,E)-N-(5-(3-(1-((5-cyanothiazol-2-yl)amino)-1-oxopropan-2-yl)phenyl)pyridin-2-yl)-4-(dimethylamino)but-2-enamide], for which the inhibition at 0.1 µM was 84%.

Take `C=CC(=O)Nc1cnc(-c2cccc([C@H](C)C(=O)Nc3ncc(C#N)s3)c2)cn1` [Compound 25, (S)-N-(5-(3-(1-((5-cyanothiazol-2-yl)amino)-1-oxopropan-2-yl)phenyl)pyrazin-2-yl)acrylamide]: the inhibition at 0.1 µM was determined as 100%.

`C=CC(=O)Nc1ccc(-c2cccc([C@H](C)C(=O)Nc3ncc(CC)s3)c2)cc1C#N` [Compound 30, (S)-N-(3-cyano-3′-(1-((5-ethylthiazol-2-yl)amino)-1-oxopropan-2-yl)-[1,1′-biphenyl]-4-yl)acrylamide]: the inhibition at 0.1 µM turned out to be 96%.

For `C=CC(=O)Nc1ccc(-c2cccc([C@H](C)C(=O)Nc3ncc(CC)s3)c2)c(F)n1` [Compound 31, (S)-N-(5-(3-(1-((5-ethylthiazol-2-yl)amino)-1-oxopropan-2-yl)phenyl)-6-fluoropyridin-2-yl)acrylamide], the inhibition at 0.1 µM came to 98%.

As for `C=CC(=O)Nc1ccc(-c2cccc([C@H](C)C(=O)Nc3ncc(C#N)s3)c2)nn1` [Compound 32, (S)-N-(6-(3-(1-((5-cyanothiazol-2-yl)amino)-1-oxopropan-2-yl)phenyl)pyridazin-3-yl)acrylamide], the inhibition at 0.1 µM is 100%.

As to `C=CC(=O)Nc1ncc(-c2cccc([C@H](C)C(=O)Nc3ncc(C#N)s3)c2)cc1F` [Compound 33, (S)-N-(5-(3-(1-((5-cyanothiazol-2-yl)amino)-1-oxopropan-2-yl)phenyl)-3-fluoropyridin-2-yl)acrylamide], the inhibition at 0.1 µM is 100%.

`C=CC(=O)Nc1ncc(-c2cccc([C@H](C)C(=O)Nc3ncc(C#N)s3)c2)nc1C` [Compound 34, (S)-N-(5-(3-(1-((5-cyanothiazol-2-yl)amino)-1-oxopropan-2-yl)phenyl)-3-methylpyrazin-2-yl)acrylamide]: the inhibition at 0.1 µM was determined as 80%.

On to `C=CC(=O)Nc1ccc(-c2cccc([C@H](C)C(=O)Nc3ncc(C(C)C)s3)c2)cn1` [Compound 35, (S)-N-(5-(3-(1-((5-isopropylthiazol-2-yl)amino)-1-oxopropan-2-yl)phenyl)pyridin-2-yl)acrylamide], for which the inhibition at 0.1 µM is 98%.

On to `C=CC(=O)Nc1cnc(-c2cccc([C@H](C)C(=O)Nc3ncc(C(C)C)s3)c2)cn1` [Compound 36, (S)-N-(5-(3-(1-((5-isopropylthiazol-2-yl)amino)-1-oxopropan-2-yl)phenyl)pyrazin-2-yl)acrylamide], for which the inhibition at 0.1 µM was 100%.

As to `C=CC(=O)Nc1ccc(-c2cccc([C@H](C)C(=O)Nc3ncc(C(F)(F)F)s3)c2)cn1` [Compound 38, (S)-N-(5-(3-(1-oxo-1-((5-(trifluoromethyl)thiazol-2-yl)amino)propan-2-yl)phenyl)pyridin-2-yl)acrylamide], the inhibition at 0.1 µM is 98%.

`C=CC(=O)Nc1ccc(-c2cccc([C@H](C)C(=O)Nc3ncc(C(F)(F)F)s3)c2)nn1` [Compound 39, (S)-N-(6-(3-(1-oxo-1-((5-(trifluoromethyl)thiazol-2-yl)amino)propan-2-yl)phenyl)pyridazin-3-yl)acrylamide]: the inhibition at 0.1 µM worked out at 100% and the IC50 was 30 nM.

As for `C=CC(=O)Nc1ccc(-c2cccc([C@H](C)C(=O)Nc3ncc(C(C)C)s3)c2)nn1` [Compound 40, (S)-N-(6-(3-(1-((5-isopropylthiazol-2-yl)amino)-1-oxopropan-2-yl)phenyl)pyridazin-3-yl)acrylamide], the inhibition at 0.1 µM was determined as 100% and inhibition was half-maximal at 27.8 nM (IC50).

Take `C=CC(=O)Nc1ccc(-c2cncc(C(C)C(=O)Nc3ncc(C#N)s3)c2)cn1` (stereo not drawn) [Compound 41, N-(5′-(1-((5-cyanothiazol-2-yl)amino)-1-oxopropan-2-yl)-[3,3′-bipyridin]-6-yl)acrylamide]: the inhibition at 0.1 µM amounted to 100%.

As to `C=CC(=O)Nc1ccc(-c2cc(C(C)C(=O)Nc3ncc(C#N)s3)ccn2)cn1` (stereo not drawn) [Compound 42, N-(4-(1-((5-cyanothiazol-2-yl)amino)-1-oxopropan-2-yl)-[2,3′-bipyridin]-6′-yl)acrylamide], the inhibition at 0.1 µM amounted to 100%.

Turning to `C=CC(=O)Nc1cnc(-c2cncc(C(C)C(=O)Nc3ncc(C4CC4)s3)c2)cn1` (stereo not drawn) [Compound 43, N-(5-(5-(1-((5-cyclopropylthiazol-2-yl)amino)-1-oxopropan-2-yl)pyridin-3-yl)pyrazin-2-yl)acrylamide], the inhibition at 0.1 µM worked out at 100% and the IC50 came to 24.6 nM.

`C=CC(=O)Nc1cnc(-c2cncc(C(C)C(=O)Nc3ncc(C#N)s3)c2)cn1` (stereo not drawn) [Compound 44, N-(5-(5-(1-((5-cyanothiazol-2-yl)amino)-1-oxopropan-2-yl)pyridin-3-yl)pyrazin-2-yl)acrylamide]: the inhibition at 0.1 µM is 100% and the IC50 turned out to be 54.4 nM.

For the compound `C=CC(=O)Nc1cnc(-c2cncc(C(C)C(=O)Nc3ncc(CC)s3)c2)cn1` (stereo not drawn) [Compound 46, N-(5-(5-(1-((5-ethylthiazol-2-yl)amino)-1-oxopropan-2-yl)pyridin-3-yl)pyrazin-2-yl)acrylamide], the inhibition at 0.1 µM is 100% and half-maximal inhibition (IC50) required 9.1 nM.

With `C=CC(=O)Nc1cnc(-c2cncc(C(C)C(=O)Nc3ncc(C(C)C)s3)c2)cn1` (stereo not drawn) [Compound 47, N-(5-(5-(1-((5-isopropylthiazol-2-yl)amino)-1-oxopropan-2-yl)pyridin-3-yl)pyrazin-2-yl)acrylamide], the inhibition at 0.1 µM is 100% and the IC50 was 12.2 nM.

As to `C=CC(=O)Nc1cnc(-c2cncc(C(C)C(=O)Nc3ncc(C(C)=O)s3)c2)cn1` (stereo not drawn) [Compound 48, N-(5-(5-(1-((5-acetylthiazol-2-yl)amino)-1-oxopropan-2-yl)pyridin-3-yl)pyrazin-2-yl)acrylamide], the inhibition at 0.1 µM was determined as 100%.

In the case of `C=CC(=O)Nc1ccc(-c2cncc(C(C)C(=O)Nc3ncc(C(F)(F)F)s3)c2)nn1` (stereo not drawn) [Compound 49, N-(6-(5-(1-oxo-1-((5-(trifluoromethyl)thiazol-2-yl)amino)propan-2-yl)pyridin-3-yl)pyridazin-3-yl)acrylamide], the inhibition at 0.1 µM worked out at 100% and half-maximal inhibition (IC50) required 18.7 nM.

With `C=CC(=O)Nc1ccc(-c2cc(C(C)C(=O)Nc3ncc(C4CC4)s3)ccn2)cn1` (stereo not drawn) [Compound 50, N-(4-(1-((5-cyclopropylthiazol-2-yl)amino)-1-oxopropan-2-yl)-[2,3′-bipyridin]-6′-yl)acrylamide], the inhibition at 0.1 µM was found to be 100% and the IC50 turned out to be 17.2 nM.

With `C=CC(=O)Nc1cnc(-c2cncc(C(C)C(=O)Nc3ncc(Cl)s3)c2)cn1` (stereo not drawn) [Compound 61, N-(5-(5-(1-((5-chlorothiazol-2-yl)amino)-1-oxopropan-2-yl)pyridin-3-yl)pyrazin-2-yl)acrylamide], the midpoint of inhibition, the IC50, lay at 9.1 nM.

Turning to `C=CC(=O)Nc1cnc(-c2cncc(C(C)C(=O)Nc3ncc(OC)s3)c2)cn1` (stereo not drawn) [Compound 66, N-(5-(5-(1-((5-methoxythiazol-2-yl)amino)-1-oxopropan-2-yl)pyridin-3-yl)pyrazin-2-yl)acrylamide], the IC50 came out at 22.8 nM.

In the case of `C=CC(=O)Nc1cnc(-c2cncc(C(C)C(=O)Nc3ncc(SC)s3)c2)cn1` (stereo not drawn) [Compound 71, N-(5-(5-(1-((5-(methylthio)thiazol-2-yl)amino)-1-oxopropan-2-yl)pyridin-3-yl)pyrazin-2-yl)acrylamide], the midpoint of inhibition, the IC50, lay at 3.2 nM.

Consider `C=CC(=O)Nc1ccc(-c2csc(C(C)C(=O)Nc3ncc(CC)s3)c2)cn1` (stereo not drawn) [Compound 77, N-(5-(5-(1-((5-ethylthiazol-2-yl)amino)-1-oxopropan-2-yl)thiophen-3-yl)pyridin-2-yl)acrylamide], for which half-maximal inhibition (IC50) required 16.7 nM.

The term inhibition denotes the share of the control response that was lost under treatment. A word on the IC50: it is the concentration that inhibits the measured activity by half.
